Laboratory results published in patent US8247211B2, “Glycopeptide antibiotics” (American Cyanamid Company, priority 2001, dated 2012).
≈ marks a conversion by molar mass, not a printed value.

Key:
Assay in all cases: In vitro antibacterial evaluation: minimum inhibitory concentration (MIC), broth dilution method
Format in all cases: cell-based
Streptococcus sp. = conditions: broth dilution, 5×10^5 CFU/mL, 18 hours at 35° C.
In short: (§1)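 Susceptibility determined by NCCLS-recommended broth dilution (M7-A2), Muller-Hinton II […]. Concentration span 64-0.06 μg/mL, inoculum 5×10^5 CFU/mL. Isolates include strains resistant to methicillin, penicillin and/or vancomycin.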

Staphylococcus sp. = conditions: for MIC Staphylococcus aureus (ATCC 29213): strain ATCC 29213; for MIC Staphylococcus aureus (GC 1131): strain GC 1131; for MIC Staphylococcus aureus (GC 3051): strain GC 3051; for MIC Staphylococcus aureus (GC 3053): strain GC 3053; for MIC Staphylococcus aureus (GC 4541): strain GC 4541; for MIC Staphylococcus aureus (GC 4542): strain GC 4542; for MIC Staphylococcus aureus (GC 4544): strain GC 4544; for MIC Staphylococcus aureus (GC 4545): strain GC 4545
In short: as §1

Enterococcus sp. = conditions: broth dilution, 5×10^5 CFU/mL, 18 hours at 35° C.
In short: as §1

Escherichia coli = conditions: 5×10^5 CFU/mL, 18 hours at 35° C.
In short: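 Test strains, among them recent clinical isolates carrying methicillin, penicillin and/or vancomycin resistance, were inoculated at 5×10^5 CFU/mL. A broth dilution series spanning 64-0.06 μg/mL in Muller-Hinton II […] (NCCLS M7-A2) defined the MIC as the lowest growth-inhibiting concentration.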

[1] = broth dilution, 5×10^5 CFU/mL, 18 hours at 35° C.
[2] = broth dilution, 18 hours at 35° C.
[3] = strain GC 4543, broth dilution, 18 hours at 35° C.
[4] = strain GC 4546, broth dilution, 18 hours at 35° C.
[5] = strain GC 4547, broth dilution, 18 hours at 35° C.
[6] = strain GC 4548, broth dilution, 18 hours at 35° C.
[7] = strain GC 4549, broth dilution, 18 hours at 35° C.
[8] = strain GC 4551, broth dilution, 18 hours at 35° C.
[9] = strain GC 6257, broth dilution, 18 hours at 35° C.

Structure (SMILES): CC(C)=CCCC(C)CC1OCC2OC(OC3C(CO)OC(Oc4ccc(CC5NC(=O)C(C(C)c6ccccc6)NC(=O)CNC(=O)C(CO)NC(=O)C(C(O)C6CNC(=N)N6C6OC(CO)C(O)C(O)C6O)NC(=O)C(C(O)C6CNC(=N)N6)NC5=O)cc4)C(O)C3O)C(O)C(O)C2O1 (stereo not drawn) [Example 126, Cyclo[glycyl-β-methylphenylalanyl-O-[4-O-[4,6-O-[3,7-dimethyloct-6-en-1-ylidene)hexopyranosyl]hexopyranosyl]tyrosyl-3-(2-iminoimidazolidin-4-yl)seryl-3-(3-hexopyranosyl-2-iminoimidazolidin-4-yl)serylseryl]]
- MIC Streptococcus agalactiae (GC 4564) (Streptococcus sp.): 1 µg/mL (≈ 0.699 µM)
- MIC Streptococcus pneumoniae (GC 1894) (Streptococcus sp.): <0.06 µg/mL
- MIC Streptococcus pneumoniae (GC 4565) (Streptococcus sp.): <0.06 µg/mL
- MIC Streptococcus pneumonine (ATCC 6301) (Streptococcus sp.): <0.06 µg/mL
- MIC Streptococcus pyogenes (GC 4563) (Streptococcus sp.): 0.12 µg/mL (≈ 0.0838 µM)
- MIC Coagulase Negative Staphylococcus (GC 4547) (Staphylococcus sp.; [1]): 8 µg/mL (≈ 5.59 µM)
- MIC Coagulase Negative Staphylococcus (GC 4548) (Staphylococcus sp.; [1]): 8 µg/mL (≈ 5.59 µM)
- MIC Coagulase Negative Staphylococcus (GC 4549) (Staphylococcus sp.; [1]): 8 µg/mL (≈ 5.59 µM)
- MIC Coagulase Negative Staphylococcus (GC 4551) (Staphylococcus sp.; [1]): 8 µg/mL (≈ 5.59 µM)
- MIC Coagulase Negative Staphylococcus (GC 6257) (Staphylococcus sp.; [1]): 8 µg/mL (≈ 5.59 µM)
- MIC Staphylococcus aureus-SMITH (GC 4543) (Staphylococcus sp.; [1]): 8 µg/mL (≈ 5.59 µM)
- MIC Staphylococcus haemolyticus (GC 4546) (Staphylococcus sp.; [1]): 8 µg/mL (≈ 5.59 µM)
- MIC Staphylococcus aureus (ATCC 29213) (Staphylococcus sp.): 8 µg/mL (≈ 5.59 µM)
- MIC Staphylococcus aureus (ATCC 29213) (Staphylococcus sp.; [2]): 8 µg/mL (≈ 5.59 µM)
- MIC Staphylococcus aureus (GC 1131) (Staphylococcus sp.): 8 µg/mL (≈ 5.59 µM)
- MIC Staphylococcus aureus (GC 1131) (Staphylococcus sp.; [2]): 8 µg/mL (≈ 5.59 µM)
- MIC Staphylococcus aureus (GC 3051) (Staphylococcus sp.): 8 µg/mL (≈ 5.59 µM)
- MIC Staphylococcus aureus (GC 3051) (Staphylococcus sp.; [2]): 8 µg/mL (≈ 5.59 µM)
- MIC Staphylococcus aureus (GC 3053) (Staphylococcus sp.): 8 µg/mL (≈ 5.59 µM)
- MIC Staphylococcus aureus (GC 3053) (Staphylococcus sp.; [2]): 8 µg/mL (≈ 5.59 µM)
- MIC Staphylococcus aureus (GC 4541) (Staphylococcus sp.): 8 µg/mL (≈ 5.59 µM)
- MIC Staphylococcus aureus (GC 4541) (Staphylococcus sp.; [2]): 8 µg/mL (≈ 5.59 µM)
- MIC Staphylococcus aureus (GC 4542) (Staphylococcus sp.): 8 µg/mL (≈ 5.59 µM)
- MIC Staphylococcus aureus (GC 4542) (Staphylococcus sp.; [2]): 8 µg/mL (≈ 5.59 µM)
- MIC Staphylococcus aureus-SMITH (GC 4543) (Staphylococcus sp.; [3]): 8 µg/mL (≈ 5.59 µM)
- MIC Staphylococcus aureus (GC 4544) (Staphylococcus sp.): 8 µg/mL (≈ 5.59 µM)
- MIC Staphylococcus aureus (GC 4544) (Staphylococcus sp.; [2]): 8 µg/mL (≈ 5.59 µM)
- MIC Staphylococcus aureus (GC 4545) (Staphylococcus sp.): 8 µg/mL (≈ 5.59 µM)
- MIC Staphylococcus aureus (GC 4545) (Staphylococcus sp.; [2]): 8 µg/mL (≈ 5.59 µM)
- MIC Staphylococcus haemolyticus (GC 4546) (Staphylococcus sp.; [4]): 8 µg/mL (≈ 5.59 µM)
- MIC Coagulase Negative Staphylococcus (GC 4547) (Staphylococcus sp.; [5]): 8 µg/mL (≈ 5.59 µM)
- MIC Coagulase Negative Staphylococcus (GC 4548) (Staphylococcus sp.; [6]): 8 µg/mL (≈ 5.59 µM)
- MIC Coagulase Negative Staphylococcus (GC 4549) (Staphylococcus sp.; [7]): 8 µg/mL (≈ 5.59 µM)
- MIC Coagulase Negative Staphylococcus (GC 4551) (Staphylococcus sp.; [8]): 8 µg/mL (≈ 5.59 µM)
- MIC Coagulase Negative Staphylococcus (GC 6257) (Staphylococcus sp.; [9]): 8 µg/mL (≈ 5.59 µM)
- MIC Enterococccus avium (GC 4558) (Enterococcus sp.): 8 µg/mL (≈ 5.59 µM)
- MIC Enterococccus faecalis (ATCC 29212) (Enterococcus sp.): 8 µg/mL (≈ 5.59 µM)
- MIC Enterococccus faecalis (GC 2691) (Enterococcus sp.): 8 µg/mL (≈ 5.59 µM)
- MIC Enterococccus faecalis (GC 3059) (Enterococcus sp.): 8 µg/mL (≈ 5.59 µM)
- MIC Enterococccus faecalis (GC 4552) (Enterococcus sp.): 8 µg/mL (≈ 5.59 µM)
- MIC Enterococccus faecalis (GC 4553) (Enterococcus sp.): 8 µg/mL (≈ 5.59 µM)
- MIC Enterococccus faecalis (GC 4554) (Enterococcus sp.): 8 µg/mL (≈ 5.59 µM)
- MIC Enterococccus faecalis (GC 6189) (Enterococcus sp.): 8 µg/mL (≈ 5.59 µM)
- MIC Enterococccus faecium (GC 2243) (Enterococcus sp.): 8 µg/mL (≈ 5.59 µM)
- MIC Enterococccus faecium (GC 4556) (Enterococcus sp.): 8 µg/mL (≈ 5.59 µM)
- MIC Enterococccus faecium (GC 4557) (Enterococcus sp.): 8 µg/mL (≈ 5.59 µM)
- MIC Enterococcus faecalis (GC 2242) (Enterococcus sp.): 8 µg/mL (≈ 5.59 µM)
- MIC Escherichia coli (ATCC 25922) (Escherichia coli): 64 µg/mL (≈ 44.7 µM)
- MIC Escherichia coli (GC 4559) (Escherichia coli): 64 µg/mL (≈ 44.7 µM)
- MIC Escherichia coli (GC 4560) (Escherichia coli): 8 µg/mL (≈ 5.59 µM)

Structure (SMILES): CC(C)=CCCC1OCC2OC(OC3C(CO)OC(Oc4ccc(CC5NC(=O)C(C(C)c6ccccc6)NC(=O)CNC(=O)C(CO)NC(=O)C(C(O)C6CNC(=N)N6C6OC(CO)C(O)C(O)C6O)NC(=O)C(C(O)C6CNC(=N)N6)NC5=O)cc4)C(O)C3O)C(O)C(O)C2O1 (stereo not drawn) [Example 123, Cyclo[glycyl-β-methylphenylalanyl-O-[4-O-[4,6-O-[5-methylhex-4-en-1-ylidene)hexopyranosyl]hexopyranosyl]tyrosyl-3-[2-iminoimidazolidin-4-yl)seryl-3-(3-hexopyranosyl-2-iminoimidazolidin-4-yl)serylseryl]]
- MIC Streptococcus agalactiae (GC 4564) (Streptococcus sp.): 2 µg/mL (≈ 1.44 µM)
- MIC Streptococcus pneumoniae (GC 1894) (Streptococcus sp.): 1 µg/mL (≈ 0.72 µM)
- MIC Streptococcus pneumoniae (GC 4565) (Streptococcus sp.): 2 µg/mL (≈ 1.44 µM)
- MIC Streptococcus pneumonine (ATCC 6301) (Streptococcus sp.): 1 µg/mL (≈ 0.72 µM)
- MIC Streptococcus pyogenes (GC 4563) (Streptococcus sp.): 0.5 µg/mL (≈ 0.36 µM)
- MIC Staphylococcus aureus (ATCC 29213) (Staphylococcus sp.): 8 µg/mL (≈ 5.76 µM)
- MIC Staphylococcus aureus (ATCC 29213) (Staphylococcus sp.; [2]): 8 µg/mL (≈ 5.76 µM)
- MIC Staphylococcus aureus (GC 1131) (Staphylococcus sp.): 8 µg/mL (≈ 5.76 µM)
- MIC Staphylococcus aureus (GC 1131) (Staphylococcus sp.; [2]): 8 µg/mL (≈ 5.76 µM)
- MIC Staphylococcus aureus (GC 3051) (Staphylococcus sp.): 8 µg/mL (≈ 5.76 µM)
- MIC Staphylococcus aureus (GC 3051) (Staphylococcus sp.; [2]): 8 µg/mL (≈ 5.76 µM)
- MIC Staphylococcus aureus (GC 3053) (Staphylococcus sp.): 8 µg/mL (≈ 5.76 µM)
- MIC Staphylococcus aureus (GC 3053) (Staphylococcus sp.; [2]): 8 µg/mL (≈ 5.76 µM)
- MIC Staphylococcus aureus (GC 4541) (Staphylococcus sp.): 4 µg/mL (≈ 2.88 µM)
- MIC Staphylococcus aureus (GC 4541) (Staphylococcus sp.; [2]): 4 µg/mL (≈ 2.88 µM)
- MIC Staphylococcus aureus (GC 4542) (Staphylococcus sp.): 4 µg/mL (≈ 2.88 µM)
- MIC Staphylococcus aureus (GC 4542) (Staphylococcus sp.; [2]): 4 µg/mL (≈ 2.88 µM)
- MIC Staphylococcus aureus-SMITH (GC 4543) (Staphylococcus sp.; strain GC 4543, 18 hours at 35° C.): 4 µg/mL (≈ 2.88 µM)
- MIC Staphylococcus aureus-SMITH (GC 4543) (Staphylococcus sp.; [3]): 4 µg/mL (≈ 2.88 µM)
- MIC Staphylococcus aureus (GC 4544) (Staphylococcus sp.): 8 µg/mL (≈ 5.76 µM)
- MIC Staphylococcus aureus (GC 4544) (Staphylococcus sp.; [2]): 8 µg/mL (≈ 5.76 µM)
- MIC Staphylococcus aureus (GC 4545) (Staphylococcus sp.): 8 µg/mL (≈ 5.76 µM)
- MIC Staphylococcus aureus (GC 4545) (Staphylococcus sp.; [2]): 8 µg/mL (≈ 5.76 µM)
- MIC Staphylococcus haemolyticus (GC 4546) (Staphylococcus sp.; strain GC 4546): 8 µg/mL (≈ 5.76 µM)
- MIC Staphylococcus haemolyticus (GC 4546) (Staphylococcus sp.; [4]): 8 µg/mL (≈ 5.76 µM)
- MIC Coagulase Negative Staphylococcus (GC 4547) (Staphylococcus sp.; strain GC 4547): 8 µg/mL (≈ 5.76 µM)
- MIC Coagulase Negative Staphylococcus (GC 4547) (Staphylococcus sp.; [5]): 8 µg/mL (≈ 5.76 µM)
- MIC Coagulase Negative Staphylococcus (GC 4548) (Staphylococcus sp.; strain GC 4548): 4 µg/mL (≈ 2.88 µM)
- MIC Coagulase Negative Staphylococcus (GC 4548) (Staphylococcus sp.; [6]): 4 µg/mL (≈ 2.88 µM)
- MIC Coagulase Negative Staphylococcus (GC 4549) (Staphylococcus sp.; strain GC 4549): 4 µg/mL (≈ 2.88 µM)
- MIC Coagulase Negative Staphylococcus (GC 4549) (Staphylococcus sp.; [7]): 4 µg/mL (≈ 2.88 µM)
- MIC Coagulase Negative Staphylococcus (GC 4551) (Staphylococcus sp.; strain GC 4551): 8 µg/mL (≈ 5.76 µM)
- MIC Coagulase Negative Staphylococcus (GC 4551) (Staphylococcus sp.; [8]): 8 µg/mL (≈ 5.76 µM)
- MIC Coagulase Negative Staphylococcus (GC 6257) (Staphylococcus sp.; strain GC 6257): 4 µg/mL (≈ 2.88 µM)
- MIC Coagulase Negative Staphylococcus (GC 6257) (Staphylococcus sp.; [9]): 4 µg/mL (≈ 2.88 µM)
- MIC Enterococccus avium (GC 4558) (Enterococcus sp.): 16 µg/mL (≈ 11.5 µM)
- MIC Enterococccus faecalis (ATCC 29212) (Enterococcus sp.): 8 µg/mL (≈ 5.76 µM)
- MIC Enterococccus faecalis (GC 2691) (Enterococcus sp.): 16 µg/mL (≈ 11.5 µM)
- MIC Enterococccus faecalis (GC 3059) (Enterococcus sp.): 16 µg/mL (≈ 11.5 µM)
- MIC Enterococccus faecalis (GC 4552) (Enterococcus sp.): 8 µg/mL (≈ 5.76 µM)
- MIC Enterococccus faecalis (GC 4553) (Enterococcus sp.): 16 µg/mL (≈ 11.5 µM)
- MIC Enterococccus faecalis (GC 4554) (Enterococcus sp.): 16 µg/mL (≈ 11.5 µM)
- MIC Enterococccus faecalis (GC 6189) (Enterococcus sp.): 8 µg/mL (≈ 5.76 µM)
- MIC Enterococccus faecium (GC 2243) (Enterococcus sp.): 8 µg/mL (≈ 5.76 µM)
- MIC Enterococccus faecium (GC 4556) (Enterococcus sp.): 8 µg/mL (≈ 5.76 µM)
- MIC Enterococccus faecium (GC 4557) (Enterococcus sp.): 8 µg/mL (≈ 5.76 µM)
- MIC Enterococcus faecalis (GC 2242) (Enterococcus sp.): 8 µg/mL (≈ 5.76 µM)
- MIC Escherichia coli (ATCC 25922) (Escherichia coli): >64 µg/mL
- MIC Escherichia coli (GC 4559) (Escherichia coli): >64 µg/mL
- MIC Escherichia coli (GC 4560) (Escherichia coli): 8 µg/mL (≈ 5.76 µM)
